pIC50: −log10 of the molar value.
What was measured:
NaV1.7 = molecular target: T1, NaV1.7 (Homo sapiens, UniProt Q15858); assay: Automated patch clamp (Qube 384), internal block of NaV1.7 in HEK293 cells; assay type: cell-based; conditions: compound in internal solution, read-out: NaV1.7 Intracellular Inhibition
T1 construct: expressed in transfected cells; host or cells: HEK293, tetracycline-inducible
Method: NaV1.7 was expressed in HEK293 cells upon induction with tetracycline. Cells were cultured in DMEM containing 10% dialyzed Fetal Bovine Serum (VWR, Radnor, Pa.), 1% Glutamax (VWR, Radnor, Pa.), 1% Penicillin-Streptomycin (VWR, Radnor, Pa.), 100 mg/L Hygromycin (Thermo Fisher Scientific, Waltham, Mass. and 5 mg/L Blasticidin (Alfa Aesar, Haverhill, Mass.). Cells were grown and maintained at 37° C. in a humidified environment containing 10% CO2 in air. Cells were detached from the culture flask for passage and harvested using 0.05% Trypsin-EDTA (Thermo Fisher Scientific, Waltham, Mass.). To induce NaV1.7, cells were induced with tetracycline (0.1-1 μg/mL, IBI Scientific, Peosta, Iowa) the day before recording.
Before experiments, cells were washed with DPBS (VWR, Radnor, Pa.), digested with Detachin (VWR Radnor, Pa.) and then triturated 10 times in CHO Serum-Free Media (VWR Radnor, Pa.) to resuspend the cells and to break apart cell aggregates. Cells were counted and the final concentration was set at 2-5 million cells per mL.
The intracellular solution contained the following: 140 mM CsF, 1 mM/5 mM EGTA/CsOH, 10 mM HEPES, 10 mM NaCl, adjusted to pH 7.3 with CsOH, and osmolality to 320 with sucrose. The external solution contained the following: 145 mM NaCl, 4 mM KCl, 1 mM MgCl2, 2 mM CaCl2, 10 mM HEPES, 10 mM Glucose, adjusted to pH 7.4 with CsOH and osmolality to 305 with sucrose. All chemicals are from Sigma-Aldrich, St. Louis, Mo. In order to test the degree of internal block by test compounds, the compounds were dissolved in internal solution at the indicated test concentration. […] In order to test the degree of external block by test compounds the compounds were dissolved in external solution at the indicated test concentration.
Automated Patch Clamps were performed on Qube 384 (Sophion Bioscience, Woburn Mass.) with multihole Qchips at a temperature setting of 22 degrees. The whole cells configuration was formed with default Qube seal and break-in parameter. The membrane potential was held at −100 mV before the voltage protocol began. Two voltage protocols were followed.
Step 1: Cells were held at −100 mV with a depolarized pulse to −20 mV for 10 ms, the interval was set at 5 s. Currents were corrected by default leak subtraction from every pulse. The duration was set at 5 mins.
Step 2: Cells were held at −100 mV with a depolarized pulse to −20 mV for 10 ms. The frequency was 5 Hz. Currents were corrected by leak subtraction calculated before step 2. The duration was set at 4 mins.
After Step 2, the Qchip was removed from the recording chamber. The internal solution was changed with solutions containing test compounds. Qchips were held at −100 mV without pulsing after being replaced in the recording chamber. The total solution switching time was 8 minutes. After the internal solution exchange, Cells were recorded and step 2 for repeated for 10 minutes.
Data analysis was performed by Sophion Analyzer. Cells were filtered with minimum 50 MOhm seal resistance and minimum 5 nA starting current. The rundown of the currents was corrected with control cells (Non-Drug). The remaining was calculated by averaging last 3 points in the end of experiments. The base line was calculated as the average of last 3 points of Step 2. IC50 curves were plotted with DR-plots/Hill function (a dose-response plot with a Hill fit).
Representative examples of the invention were tested for intracellular inhibition of NaV 1.7 in the automated patch clamp assay. Activity Range is reported as IC50: “++++” (<1 μM), “+++” (1-3 μM), “++” (3-10 μM) or “+” (10-30 μM).

[1] = PAMPA membrane permeability assay; assay type: physicochemical; conditions: pH 7.4 buffer, GIT lipid, 4 hours incubation
Summary of the method: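 Passive diffusion across a GIT-lipid-painted artificial membrane, with compounds at 50 uM in pH 7.4 buffer in the donor well and 4 h incubation. Donor, acceptor and reference solutions were quantified by UV spectra, and permeability coefficients (10^−6 cm/s) were derived from AUCs. Results are binned as + (<0.1), ++ (0.1-2.0), +++ (2.0-10.0), ++++ (>10.0).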

T1 sequence (Q15858 whole entry): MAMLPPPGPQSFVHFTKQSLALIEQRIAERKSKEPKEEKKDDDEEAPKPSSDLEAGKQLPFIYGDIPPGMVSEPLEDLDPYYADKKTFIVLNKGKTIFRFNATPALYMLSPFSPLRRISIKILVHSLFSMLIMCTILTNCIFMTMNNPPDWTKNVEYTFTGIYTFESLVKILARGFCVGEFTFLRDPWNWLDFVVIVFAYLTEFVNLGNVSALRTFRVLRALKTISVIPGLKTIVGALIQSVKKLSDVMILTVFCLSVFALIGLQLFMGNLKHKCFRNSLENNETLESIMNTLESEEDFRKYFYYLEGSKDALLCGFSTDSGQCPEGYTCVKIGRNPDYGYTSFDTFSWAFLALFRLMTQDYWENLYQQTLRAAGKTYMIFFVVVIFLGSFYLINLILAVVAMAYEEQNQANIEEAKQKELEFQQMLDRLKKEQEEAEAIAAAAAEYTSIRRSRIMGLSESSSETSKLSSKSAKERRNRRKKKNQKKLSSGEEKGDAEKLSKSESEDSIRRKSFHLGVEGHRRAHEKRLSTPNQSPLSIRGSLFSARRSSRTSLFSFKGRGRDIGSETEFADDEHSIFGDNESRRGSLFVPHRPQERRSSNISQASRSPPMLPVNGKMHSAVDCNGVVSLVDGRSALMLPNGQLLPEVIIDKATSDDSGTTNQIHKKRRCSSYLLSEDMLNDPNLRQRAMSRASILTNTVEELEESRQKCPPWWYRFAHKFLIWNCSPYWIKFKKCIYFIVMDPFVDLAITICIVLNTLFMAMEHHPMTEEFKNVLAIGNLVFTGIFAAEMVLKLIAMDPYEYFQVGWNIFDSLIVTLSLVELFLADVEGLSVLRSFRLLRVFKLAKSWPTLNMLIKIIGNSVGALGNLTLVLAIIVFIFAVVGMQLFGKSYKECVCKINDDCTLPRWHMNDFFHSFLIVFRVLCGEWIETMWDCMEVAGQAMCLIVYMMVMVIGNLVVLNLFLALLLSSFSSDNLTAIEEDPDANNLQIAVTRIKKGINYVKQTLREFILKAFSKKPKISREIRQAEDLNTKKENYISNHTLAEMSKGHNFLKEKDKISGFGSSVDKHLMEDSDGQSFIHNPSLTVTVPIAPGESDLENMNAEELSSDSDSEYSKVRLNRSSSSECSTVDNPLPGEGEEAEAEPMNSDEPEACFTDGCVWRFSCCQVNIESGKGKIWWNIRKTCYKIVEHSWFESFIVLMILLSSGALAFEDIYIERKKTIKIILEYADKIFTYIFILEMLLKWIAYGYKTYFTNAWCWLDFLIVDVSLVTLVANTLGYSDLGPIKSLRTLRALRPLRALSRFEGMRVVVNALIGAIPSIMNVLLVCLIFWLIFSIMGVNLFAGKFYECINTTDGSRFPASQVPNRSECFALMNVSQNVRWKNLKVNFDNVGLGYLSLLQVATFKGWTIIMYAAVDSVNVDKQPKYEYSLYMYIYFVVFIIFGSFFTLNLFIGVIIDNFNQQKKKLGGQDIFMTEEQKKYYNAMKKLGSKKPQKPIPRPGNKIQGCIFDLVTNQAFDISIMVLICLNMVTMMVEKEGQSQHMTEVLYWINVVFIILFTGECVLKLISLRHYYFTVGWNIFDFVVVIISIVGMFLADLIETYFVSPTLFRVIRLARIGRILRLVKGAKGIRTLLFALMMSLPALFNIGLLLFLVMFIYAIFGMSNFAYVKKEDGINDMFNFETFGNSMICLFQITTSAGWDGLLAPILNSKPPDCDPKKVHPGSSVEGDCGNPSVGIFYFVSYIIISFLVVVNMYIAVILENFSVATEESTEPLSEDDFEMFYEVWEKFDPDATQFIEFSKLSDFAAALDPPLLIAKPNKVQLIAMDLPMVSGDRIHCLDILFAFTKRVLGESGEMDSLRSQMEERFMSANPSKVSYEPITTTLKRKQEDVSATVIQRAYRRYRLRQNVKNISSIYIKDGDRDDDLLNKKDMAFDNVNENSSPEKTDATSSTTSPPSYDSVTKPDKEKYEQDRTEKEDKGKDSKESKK

Row | SMILES | pIC50 (NaV1.7) | PAMPA (10^−6 cm/s) [1]
1 | CCc1cccc(C[N+]2(C(CC)C(=O)Nc3c(C)cccc3C(=O)OC)CCCCC2)c1.O=C[O-] (stereo not shown) [Compound 58] | 5.00 to 5.52 | + (<0.1 10^−6 cm/s)
2 | COC(=O)c1cccc(C)c1NC(=O)C[N+]1(CC(=O)N(C)C)CCCC(c2ccccc2)C1.O=C([O-])C(F)(F)F (stereo not shown) [Compound 60] | > 6.00 | + (<0.1 10^−6 cm/s)
3 | CCOC(=O)C[N+]1(CC(=O)Nc2c(C)cccc2C(=O)OC)CCCC(c2ccccc2)C1.O=C([O-])C(F)(F)F (stereo not shown) [Compound 63] | > 6.00 | +++ (2.0-10.010^−6 cm/s)
4 | COC(=O)c1cccc(C)c1NC(=O)C[n+]1cccc(-c2ccccc2)c1.[Br-] [Compound 66] | > 6.00 | + (<0.1 10^−6 cm/s)
5 | CCOC(=O)c1cccc(C)c1NC(=O)C[n+]1cccc(-c2ccccc2)c1 [Compound 67] | > 6.00 | +++ (2.0-10.010^−6 cm/s)
6 | COC(=O)c1cccc(C)c1NC(=O)C[n+]1cccn1C1CCCCC1.[Br-] [Compound 69] | > 6.00 | ++ (0.1-2.0 10^−6 cm/s)
7 | Cc1cccc(C(=O)OC(C)(C)C)c1NC(=O)C[n+]1cccc(-c2ccccc2)c1.[Br-] [Compound 71] | 5.52 to 6.00 | + (<0.1 10^−6 cm/s)
8 | Cc1cccc(C(=O)OC(C)(C)C)c1NC(=O)C[n+]1cccn1C1CCCCC1.[Br-] [Compound 72] | 5.52 to 6.00 | + (<0.1 10^−6 cm/s)

From patent US10927096B2, “Ester substituted ion channel blockers and methods for use” (Nocion Therapeutics, Inc., priority 2019, dated 2021)
